Tests used:
[1] = system: annexin V on THP-1 cell surfaces; test: Restoration of annexin A5 anticoagulant shield on THP-1 cells treated with anti-β2-GP1 IgG; type: cell-based, human; settings: 0.5 μg/mL HCQ; comparative sample without HCQ = 1
Procedure: THP-1 cells were first maintained in a RPMI1640 medium (Thermo Fisher Scientific, Waltham, Massachusetts) containing 10% fetal bovine serum, 2 mM L-glutamine, and 50 U/mL penicillin-streptomycin antibiotics. They were then seeded at a density of 8×10^4 cells/well in a 96-well culture plate and were allowed to reach confluence. Subsequently, THP-1 cells were treated with anti-β2-GP1 IgG in the presence of 0.5 μg/mL HCQ. Levels of annexin V on cell surfaces were determined by optical absorbance after the IgG-treated THP-1 cells were rinsed with HBS-CaCl2) solution to remove free annexin V, leaving only annexin V that is attached to the cell surface.
Three samples were prepared each with one of three HCQ (i.e., S-HCQ, R-HCQ, and racemic HCQ) solutions. A comparative sample was obtained following the same procedure described above except that HCQ was not added. A patient serum containing β2-GP1 antibody was used as a control sample.

VCAM-1 = test: APS-related thrombosis mice model, serum expression level of VCAM-1; type: in vivo; settings: for Inhibition (VCAM-1): relative to comparative group; for Thrombosis (VCAM-1): serum expression level relative to comparative group
Procedure: (§1) Venous thrombosis was induced in mice using an endothelial injury model. Mice were intravenously (IV) injected 7.5% FeCl3 (positive control), saline (negative control), or an APS-derived anti-β2GP1 antibody (from Patient 2) at a dosage of 100, 200, or 300 AU (test group). They were anesthetized 72 hours after the injection. The right femoral vein was exposed and pinched with a pressure of 1500 g/mm^2 to induce formation of a thrombus.
(§2) Based on the APS animal model described above, R-HCQ and S-HCQ were administered to mice for reducing thrombosis. Mice were divided into 6 groups, each of which was injected with (1) IgG as a control group, (2) 100 AU of the anti-β2GPI antibody as a comparative group, (3) a combination of 100 AU of the anti-B2GPI antibody and 300 μg of S-HCQ as treatment group 3, (4) a combination of 100 AU of the anti-B2GPI antibody and 200 μg of S-HCQ as treatment group 4, (5) a combination of 100 AU of the anti-B2GPI antibody and 200 μg of R-HCQ as treatment group 5, or (6) a combination of 100 AU of the anti-β2GP1 antibody and 100 μg of R-HCQ as treatment group 6.
(§3) Serum expression levels of E-selectin and VCAM-1, two biomarkers of APS-related thrombosis, were measured. Percentages of inhibition in treatment groups 3-6 were calculated based on the expression levels of E-selectin and VCAM-1 relative to the comparative group. A low expression level of E-selectin or VCAM-1 indicates high inhibition of thrombosis.

[2] = target: T1, β2-GP1 and antibody binding (THP-1 cells) (Homo sapiens, UniProt P02749); test: ELISA assay of β2-GP1-antibody binding to THP-1 membrane; type: cell-based
T1 construct: THP-1 is a human peripheral blood monocyte that highly expresses β2-GP1; endogenous in cells; host or cells: THP-1 (human monocyte cell line): total lysate in the dot blot, whole cells in the ELISA
T1 sequence (P02749 20-345): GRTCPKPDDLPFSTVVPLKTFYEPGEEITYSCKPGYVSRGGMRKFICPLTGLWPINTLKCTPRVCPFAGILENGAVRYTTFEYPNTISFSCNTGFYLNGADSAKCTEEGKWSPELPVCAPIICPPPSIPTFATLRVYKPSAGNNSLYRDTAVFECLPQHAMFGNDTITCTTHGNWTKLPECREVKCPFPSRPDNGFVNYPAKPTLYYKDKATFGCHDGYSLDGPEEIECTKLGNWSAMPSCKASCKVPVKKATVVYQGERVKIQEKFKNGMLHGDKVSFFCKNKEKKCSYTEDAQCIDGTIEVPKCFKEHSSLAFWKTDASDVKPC
Procedure: Subsequently, an ELISA assay was performed to determine whether S-HCQ or R-HCQ inhibiting binding of β2-GP1-antibody complexes to the THP-1 membrane. THP-1 cells thus treated were resuspended to a density of 3.6×10^5 cells/mL in a medium containing 80% RPMI-1640 (Thermo Fisher Scientific, Waltham, Massachusetts), 20% anti-β2-GP1 immunoglobulin G (“IgG”) (0.2 mg/mL) in HEPES-buffered saline (HBS, pH 7.45), and S-HCQ. Three samples were each prepared from a medium having a different S-HCQ concentration, i.e., 1 μg/mL, 2.5 μg/mL, or 5 μg/mL. A control sample was obtained following the same procedure described above except that no S-HCQ was added. Optical absorbance was measured at 450 nm.
(§4) All assays above were performed in triplicate. Reported results are expressed as means±S.E.M. All statistical analyses were performed using a software under the trademark of GraphPad Prism® (Version 8.0. GraphPad Software Inc, San Diego, California). For comparisons between two groups, student's test was used. A p-value<0.05 was considered statistically significant.

[3] = target: T2, β2-GP1 and antibody binding (Homo sapiens, UniProt P02749); test: Dot blot assay of β2-GP1 and antibody binding, THP-1 total lysate; settings: 10 mg/mL, mean ± S.E.M., triplicate
T2 construct: THP-1 is a human peripheral blood monocyte that highly expresses β2-GP1; endogenous in cells; host or cells: THP-1 (human monocyte cell line): total lysate in the dot blot, whole cells in the ELISA
T2 sequence (P02749 20-345): T1 sequence (P02749 20-345)
Procedure: THP-1 is a human peripheral blood monocyte that highly expresses β2-GP1 and is associated with increased APS in patients. Before treating with HCQ, THP-1 cells were fixed in a 3.7% paraformaldehyde solution, blocked in a phosphate-buffered saline (PBS) containing 1% bovine serum albumin (BSA), and incubated with a mouse aPL antibody (A500-006A, Bethyl Laboratories, Montgomery, Texas). Cellular immunofluorescent staining was used to determine β2-GP1 expression.
Separate samples were prepared for a dot blot assay as follows: a THP-1 total lysate was loaded to a polyvinylidene difluoride membrane, blocked with PBS containing 1% BSA, and incubated with mouse anti-β2-GP1 A500-006A, together with S-HCQ, R-HCQ, or racemic HCQ, each at a concentration of 10 mg/mL. A control sample was obtained following the same procedure described above except that no HCQ was added.
as §4

E-selectin = test: APS-related thrombosis mice model, serum expression level of E-selectin; type: in vivo; settings: for Inhibition (E-selectin): relative to comparative group; for Thrombosis (E-selectin): serum expression level relative to comparative group
Procedure: as §1, §2, §3

[4] = system: APS-related thrombosis (E-selectin and VCAM-1); test: APS-related thrombosis mice model, average of E-selectin and VCAM-1; type: in vivo
Procedure: as §1, §2, §3

[5] = system: thrombosis induced by anti-β2GP1 antibody; test: APS-related thrombosis mice model, femoral vein pinch, clot formation; type: in vivo, C57BL/6 male mice
Procedure: C57BL/6 male mice at ages of 8-12 weeks (purchased from BioLasco, Taiwan) were used in this study. All procedures were approved by the Institutional Animal Care Committee of Taipei Medical University. Venous thrombosis was induced in mice using an endothelial injury model. […] They were anesthetized 72 hours after the injection. The right femoral vein was exposed and pinched with a pressure of 1500 g/mm^2 to induce formation of a thrombus. […] As such, the anti-β2GP1 antibody was injected to a mouse at 100 AU for all studies below. Following the procedure described above, a mouse (i.e., HCQ-treated mouse) was injected with 100 AU of the anti-β2GP1 antibody from Patient 5 and 2000 μg racemic-HCQ (200 μl at 10 mg/ml). As a control, a group of mice (n=4; APS-induced mice) were injected with only 100 AU of the anti-β2GP1 antibody. After 72 hours, the right femoral vein of each mouse was exposed and pinched with a pressure of 1500 g/mm^2 to induce formation of a thrombus. Thrombosis time (in minute) was recorded. […] Clots were removed from the femoral vein after pinch for 5 minutes.

CCN(CCO)CCC[C@H](C)Nc1ccnc2cc(Cl)ccc12 [S-HCQ, S-(+)-hydroxychloroquine]
relative level of annexin V [1]: 3.45 | Inhibition (VCAM-1) (VCAM-1; 200 μg): 49% | Thrombosis (VCAM-1) (VCAM-1; 200 μg): 50.9% | Inhibition (VCAM-1) (VCAM-1; 300 μg): 52% | Thrombosis (VCAM-1) (VCAM-1; 300 μg): 47.8% | inhibition rate of β2-GP1 and antibody binding ([2]; 1 μg/mL): 25% | inhibition rate of β2-GP1 and antibody binding ([2]; 2.5 μg/mL): 60% | inhibition rate of β2-GP1 and antibody binding ([2]; 5 μg/mL): 90% | inhibition of β2-GP1 and antibody binding [3]: 97% | Inhibition (E-selectin) (E-selectin; 200 μg): 53.8% | Thrombosis (E-selectin) (E-selectin; 200 μg): 46.2% | Inhibition (E-selectin) (E-selectin; 300 μg): 59.4% | Thrombosis (E-selectin) (E-selectin; 300 μg): 40.6% | Inhibition Average ([4]; 200 μg): 51.4% | Thrombosis Average ([4]; 200 μg): 48.55% | Inhibition Average ([4]; 300 μg): 55.7% | Thrombosis Average ([4]; 300 μg): 44.2%

CCN(CCO)CCC[C@@H](C)Nc1ccnc2cc(Cl)ccc12 [R-HCQ, (R)-(−)-hydroxychloroquine]
relative level of annexin V [1]: 2.54 | Inhibition (VCAM-1) (VCAM-1; 100 μg): 16.3% | Thrombosis (VCAM-1) (VCAM-1; 100 μg): 83.7% | Inhibition (VCAM-1) (VCAM-1; 200 μg): 23% | Thrombosis (VCAM-1) (VCAM-1; 200 μg): 75% | inhibition of β2-GP1 and antibody binding [3]: 23% | Inhibition (E-selectin) (E-selectin; 100 μg): 25.2% | Thrombosis (E-selectin) (E-selectin; 100 μg): 74.8% | Inhibition (E-selectin) (E-selectin; 200 μg): 30% | Thrombosis (E-selectin) (E-selectin; 200 μg): 70% | Inhibition Average ([4]; 100 μg): 20.75% | Thrombosis Average ([4]; 100 μg): 79.25% | Inhibition Average ([4]; 200 μg): 26.5% | Thrombosis Average ([4]; 200 μg): 72.5%

CCN(CCO)CCCC(C)Nc1ccnc2cc(Cl)ccc12 (racemic) [racemic HCQ, Hydroxychloroquine]
relative level of annexin V [1]: 3.09 | thrombosis time ([5]; 2000 μg with 100 AU anti-β2GP1 antibody, 72 hours after injection, healthy mice 5, APS-induced mice 2): 5 min | thrombus size ([5]; 2000 μg, clots removed after pinch for 5 minutes, versus mice without HCQ treatment): significantly reduced the thrombus size | inhibition at 10000 µg/mL [3]: 80%

From patent US20240238272A1, “TREATMENT OF ANTIPHOSPHOLIPID SYNDROME USING S-HYDROXYCHLOROQUINE” (Genovate Biotechnology Co. Ltd., priority 2021, published 2024)
